Data on five molecules can be found in patent US7994326B2 (Northwestern University, priority 2003, dated 2011).

Assay type in all cases: biochemical
Assay [1] concerns the target T1, bovine eNOS (Bos taurus, UniProt P29473).
T1 construct: made in house; host or cells: E. coli (plasmid Bov-eNOSpCW)
Description: NOS enzyme inhibitory assay (hemoglobin capture), eNOS. As to conditions: for IC50: bovine eNOS, 10 μM L-arginine, * = no inhibition observed up to the concentration listed.

Assay [2] deals with T2, murine iNOS (Mus musculus, UniProt P29477).
T2 construct: made in house; host or cells: E. coli (plasmid pCWiNOS)
The assay can be described thus: NOS enzyme inhibitory assay (hemoglobin capture), iNOS. As to conditions: for IC50: murine iNOS, 10 μM L-arginine. The gist of the method: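 Recombinant murine iNOS, overexpressed in E. coli from plasmid pCWiNOS (induced with 1 mM IPTG) and purified on a 2′,5′-ADP-Sepharose 4B column with elution by 10 mM 2′(3′)-AMP, 10 μM BH4 and 0.3 M NaCl, was used to test inhibitors. Nitric oxide production was followed with the hemoglobin capture assay, and IC50 values were determined.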

For assay [3], the target named is T3, rat nNOS (Rattus norvegicus, UniProt P29476).
T3 construct: made in house; host or cells: E. coli (plasmid pCWnNOS)
The assay can be described thus: NOS enzyme inhibitory assay (hemoglobin capture), nNOS. As to conditions: for IC50: rat nNOS, 10 μM L-arginine. Summed up:
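Recombinant rat nNOS expressed in E. coli and purified by calmodulin-Sepharose and 2′,5′-ADP-Sepharose chromatography. NO production followed by hemoglobin capture; inhibition expressed as Ki, selectivity as ratio of Ki values.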

[4] abbreviates: Table 1a, apparent Ki calculated from IC50, Km 1.7 μM, read-out: calc. Ki eNOS.
Where [5] appears, read: Table 1a, apparent Ki calculated from IC50, Km […], read-out: calc. Ki iNOS.
Setting [6] is: Table 1a, apparent Ki calculated from IC50, Km […], read-out: calc. Ki nNOS.

Like-named read-outs stand apart in the source and are kept apart here.

Regarding `Cl.Cl.Cl.Cl.Nc1nc(CC2CNCC2NCCNCc2ccc(Cl)cc2)cs1` (racemic) [Compound P-82], the Ki in assay [1] (Table 1b, read-out: Ki eNOS) came out at 3 µM; in assay [2] (Table 1b, read-out: Ki iNOS), 3.4 µM; in assay [3] (Table 1b, read-out: Ki nNOS) it was 1.7 µM. For the same molecule, in assay [3] (Table 1b, ratio of Ki values eNOS/nNOS), the Selectivity n/e worked out at 1.8. Moreover, the Selectivity n/i in assay [3] (Table 1b, ratio of Ki values iNOS/nNOS) is reported as 2.

Turning to `Nc1cccc(CC2CNCC2NC2CCN(Cc3ccccc3)C2)n1` (stereo not shown) [Compound P-36], the results for the Ki in assay [1] (setting [4]), in assay [2] (setting [5]) and in assay [3] (setting [6]) were 108 µM, 222 µM and 3.34 µM, respectively. In addition, the 50% inhibitory concentration (IC50) (usually the concentration needed to halve the response being measured) stood at 740 µM in assay [1] (Table 1a), 489 µM in assay [2] (Table 1a) and 29 µM in assay [3] (Table 1a). Moreover, the Selectivity n/e in assay [3] (Table 1a, Ki(eNOS)/Ki(nNOS)) is 32.20. Besides, the Selectivity n/i in assay [3] (Table 1a, Ki(iNOS)/Ki(nNOS)) worked out at 66.39.

In the case of `Nc1cccc(CC2CNCC2NC2CCN(Cc3ccccc3)C2)n1` (stereo not shown) [Compound P-37], the results for the Ki in assay [1] (setting [4]), in assay [2] (setting [5]) and in assay [3] (setting [6]) were 182 µM, 229 µM and 75.2 µM, respectively. The IC50 in assay [1] (Table 1a) amounted to 1250 µM; in assay [2] (Table 1a), 506 µM; in assay [3] (Table 1a) it was 654 µM. The same molecule yielded a Selectivity n/e in assay [3] (Table 1a, Ki(eNOS)/Ki(nNOS)) of 2.42. Moreover, the Selectivity n/i in assay [3] (Table 1a, Ki(iNOS)/Ki(nNOS)) came out at 3.05.

As to `Nc1cccc(CC2CNCC2NC2CCN(Cc3ccccc3)C2)n1` (stereo not shown) [Compound P-38], the Ki was 181 µM in assay [1] (setting [4]), 425 µM in assay [2] (setting [5]) and 2.74 µM in assay [3] (setting [6]). Further, the figures for the IC50 in assay [1] (Table 1a), in assay [2] (Table 1a) and in assay [3] (Table 1a) were 1250 µM, 937 µM and 23.8 µM, respectively. The molecule also yielded a Selectivity n/e in assay [3] (Table 1a, Ki(eNOS)/Ki(nNOS)) of 66.19. The same molecule returned a Selectivity n/i in assay [3] (Table 1a, Ki(iNOS)/Ki(nNOS)) of 155.05.

For `Nc1cccc(CC2CNCC2NC2CCN(Cc3ccccc3)C2)n1` (stereo not shown) [Compound P-39], the Ki was 92.8 µM in assay [1] (setting [4]), 325 µM in assay [2] (setting [5]) and 22.6 µM in assay [3] (setting [6]). For the same molecule, the IC50 in assay [1] (Table 1a) came to 638 µM; in assay [2] (Table 1a) it was 716 µM; in assay [3] (Table 1a), 196 µM. Besides, the Selectivity n/e in assay [3] (Table 1a, Ki(eNOS)/Ki(nNOS)) was 4.10. For the same molecule, the Selectivity n/i in assay [3] (Table 1a, Ki(iNOS)/Ki(nNOS)) was determined as 14.38.
